Measurements reported in US20050107289A1, “Anti-microbial peptides and compositions” (priority 2001, published 2005).
Read-outs that look alike come from different tables or passages of the source. Non-standard residues stand in square brackets, D forms with d. Residues, ends and D or L forms follow the SMILES beside them.

Experiments:
[1] = Proton transport in vesicles with pH gradient; conditions: vesicles pH 6.5 inside, pH 5.5 outside
Experimental: Formation of supramolecular structures that can permeabilize membranes was also inferred from proton transport activity. Vesicles were prepared having pH 6.5 inside and pH 5.5 in the outside bulk solution. The collapse of the imposed pH gradient in these vesicles, upon formation of the putative transmembrane channel structure, was studied by monitoring the fluorescence intensity of an entrapped pH-sensitive dye. (V. E. Carmichael et al, in J.Am. Chem. Soc. (1989), vol. 111, pages 767-769). Addition of peptide cyclo[-(Trp-D-Leu)3-Gln-D-Leu-]
Unilamellar vesicles were prepared by the reverse-phase evaporation using DPPC, OPPC, cholesterol in the ratio of 1:1:2 in a solution containing 5(6)-carboxyfluorescein (20 mM in phosphate/saline buffer: 137 mM NaCl, 2.6 mM KCI, 6.4 mM Na2HPO4, 1.4 mM KH2PO4, pH 6.5) according to the method of F. Szoka et al. in Proc. Natl. Acad. Sci. USA (1978), vol. 75, pages 4194-4198. Liposomes were then sized by multiple extrusions through Nucleopore® polycarbonate membranes (10 times, 50 psi, using 0.8 and 2×0.4 micron filter stacks) and the untrapped 5(6)-carboxyfluorescein was removed by size exclusion chromatography (Sephadex G-25 column 1×30 cm) using the same phosphate/saline buffer according to the method of F. Olson et al. in Biochim. […] Vesicles formed in this way are approximately 150 nanometer in diameter as determined by electron microscopy. […] In each experiment, […] of the stock vesicle solution (3.5×10^−3 M in phospholipids) was added to pH 5.5 buffer (1.3 ml, 137 mM NaCl, 2.6 mM KCl, 6.4 Na2HPO4, 1.4 KH2PO4) and placed in a 1 cm quartz cuvette inside a stirring thermojacketed sample holder of the fluorescence instrument and equilibrated at 25° C. for 15 minutes with gentle stirring. To the cuvette, through an injector port, […] of the peptide dissolved in DMSO was added with continuous fluorescence monitoring at 520 nm (excitation at 470 nm). The observed data were then normalized for comparison into the fractional change in fluorescence ((I0-It)/(I0-I∞)) (V. E. Carmichael et al, in J.Am. Chem. Soc. (1989), vol. 111, pages 767-769)).

[2] = tested on: S. aureus (MRSA) ATCC 33591; assay type: cell-based, Staphylococcus aureus; conditions: for MRSA (in vitro activity): Table 9
How it was run: (§1)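 Peptide activity was measured by NCCLS M7-A4 broth dilution, mostly as microdilution with some macrodilution. Serial 2-fold dilutions, approximately 400-2 μg/ml stock range, were made in 5% DMSO/9% aq. sucrose. Overnight cultures were diluted 4000-fold to about 2.5×10^5 cfu/ml inoculum.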

E. coli JM109(DE3) = assay type: cell-based, Escherichia coli; conditions: JM109
How it was run: as §1

murine red blood cells [3] = assay: Red blood cell hemolysis; assay type: cell-based, mouse; set-up: RBC Hemolysis (HD50): unit not given here
How it was run: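 Hemolysis read as A560 of supernatant, scaled between saline (0%) and 1% Triton X-100 (100%) controls; peptides were serially diluted onto 5% murine red cells in saline plus 10% FBS and incubated 30 min at 37° C.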

[4] = tested on: vancomycin-resistant Enterococus faecalis (VRE)(ATCC 51575); assay type: cell-based, Enterococcus faecalis; set-up: key to VRE (in vitro activity): peptide concentration in μg/ml (broth dilution assay); conditions: for VRE (in vitro activity): Table 9
How it was run: as §1

[5] = tested on: Bacillus cereus ATCC 11778; assay type: cell-based
How it was run: as §1

[6] = tested on: Streptococcus pneumoniae (ATCC 6301); assay type: cell-based
How it was run: as §1

[7] = trypsin, α-chymotrypsin, subtilisin, blood plasma; RP-HPLC over 24 h
Experimental: Cyclic peptides having SEQ ID NO:13, 18, 26, and 29 were assayed for proteolytic susceptibility.

[8] = tested on: S. aureus MRSA (ATCC 33591); assay: Mouse peritonitis model, MRSA protection; assay type: in vivo, mice; set-up: PD50 MRSA: unit not given here
Experimental: Bacteria were prepared for in vivo using procedures similar to those as previously described. […] S. aureus MRSA bacteria (ATCC 33591) were grown at 37° C. in 5 mL of Antibiotic Medium-3 (AM-3, Difco Laboratories) with agitation for 12 hours to a stationary phase. Cells were collected by centrifugation, washed twice with saline solution and resuspended in about 10 mL of saline to an O.D.650 of 1.2. This suspension was diluted ten times in a sterilized 5% mucin (Difco) in saline to a concentration of 2-4×10^7 cfu/ml (actual inoculum size was verified by colony counts on agar plates).
Peptides of the invention were tested in mice to ascertain whether they would protect the mice against bacterial infection using procedures similar to those described in N. Frimodt-Moller et al., The Mouse Peritonitis/Sepsis Model, in Zak et al. (eds.) HANDBOOK OF ANIMAL MODELS OF INFECTION 127-37 (Academic Press 1999).
Male Balb-C mice (6 weeks old, approximately 20 g) were used in the study. Staphylococcus aureus MRSA bacteria (ATCC 33591) were grown at 37° C. with agitation for 12 hours to a stationary phase. Cells were collected by centrifugation, washed twice with saline and resuspended to an O.D.650 of 1.4. This suspension was diluted ten times with saline and resuspended to a concentration of 3-5×10^7 cfu/ml. For each peptide five groups of eight mice per group were infected I.P. with 0.5 ml of the above Staphylococcus aureus MRSA preparation (lethal dose). Forty-five minutes to an hour after infection, each group was treated with a different dose of peptide and a control group received vehicle only. Mice were monitored for fourteen days; death was defined as the end point. Median protecting doses (PD50) were calculated following the Reed and Muench method. […] For IV and SQ models peptide was administered immediately after IP infection.

Toxicity studies in mice = assay type: in vivo; set-up: LD50(IP) / LD50(IV): unit not given here
Experimental: Peptides were tested for toxicity in vivo using procedures similar to those described previously. […] Mice (male Balb-C) in groups of 4-8 were given via IV, IP or SQ single bolucdoses of peptides and monitored for 14 days. Toxicity of sublethal doses was assessed based on the behavior and appearance of the mice after peptide administration compared to control mice receiving only vehicle. Signs of acute toxicity included lack of activity, red feet and tail, faster breathing. Death was defined as the end point for lethal doses of peptides.
Toxicology Studies: Initial toxicology studies in mice were conducted to evaluate various routes of drug administration, maximum tolerable dose, and blood and tissue toxicity. Two mice in each dose study were injected with a bolus intravenous (IV), intraperitoneal (IP), or subcutaneous (SQ) doses of peptide SEQ ID NO:8, 18, and 26. For each study, two control animals received vehicle only and no peptide. […] Signs of acute toxicity included any one of the following: lack of activity, red feet and tail, or faster breathing. […] A regimen of […] of peptide SEQ ID NO:18 for three consecutive days was administered to two mice IP and two mice SQ.

[9] = tested on: S. aureus (MRSA) (ATCC No. 33591); assay: Time-killing curve, S. aureus MRSA ATCC 33591; assay type: cell-based, Staphylococcus aureus; conditions: FIG. 8a; at MIC concentrations
Experimental: (§2) The speed at which several of the cyclic peptides of the invention kill E. coli JM 109 (DE3), Enterococcus faecium SP 180 and S. aureus (MRSA) (ATCC No. 33591 and 33592) was further tested at room temperature and/or at 37° C. A lower temperature tends to enrich the bacterial cultures for mature bacteria because the bacteria are not growing quickly. […] The presence or absence of immature bacteria in the culture may influence the rate at which the bacteria are killed, because immature bacteria tend to be more susceptible to many forms of antibiotics.
To generate the data shown in FIG. 8a, the log of the number of colony forming units (cfu) per ml of culture was determined as a function of time after treatment of S. aureus (MRSA) (ATCC No. 33591) with cyclo[KHLWLW] (closed circles), cyclo[KRKWLWLW] (closed triangles), and cyclo[KQRWLWLW] (open squares) at MIC concentrations. […] The reduction in cfu count was greater than 3 log units. Cyclic peptide cyclo[KHLWLW] killed effectively all S. aureus (MRSA) within about 60 minutes.

E. coli JM109 (DE3) = assay: Time-killing curve, E. coli; assay type: cell-based, Escherichia coli; conditions: FIG. 8b; at MIC concentrations
Experimental: as §2
In FIG. 8b, the log of the number of E. coli colony forming units (cfu) per ml of culture is plotted versus time treated with cyclo[KRKWLWLW] (closed triangles), cyclo[KQRWLWLW] (closed circles), cyclo[KHLWLW] (closed squares), and cyclo[KKWLW] (open squares) at MIC concentrations. […] Cyclic peptide cyclo[KHKLWLW] kills effectively all E. coli within about 90 minutes. Cyclic peptides cyclo[KRKWLWLW] and cyclo[KKWLW] kill effectively all of the E. coli within about 130 minutes. […] Nonetheless, these cyclic peptides kill both types of bacteria very quickly.

murine red blood cells [10] = conditions: cited from earlier work
[11] = media a: anti-microbial media-3 (AM-3)

Row | Compound | proton / ion transport activity [1] | MRSA MIC ([2]; ATCC 33591) | S. aureus (MRSA) MIC ([2]; ATCC 33591) | MRSA (in vitro activity) [2, 11] | RBC Hemolysis (HD50) (murine red blood cells [3]) | VRE MIC ([4]; ATCC 51575) | VRE (in vitro activity) ([4]; media a: AM-3) | B. cerius MIC [5] | S. pneum. MIC [6] | other results
1 | cyclo[-(Trp-D-Leu)3-Gln-D-Leu-] [SEQ ID NO:2] | rapid collapse of the pH gradient |  |  |  |  |  |  |  |  | 
2 | CC(C)C[C@H]1NC(=O)[C@H](CCCCN)NC(=O)[C@@H](CCCCN)NC(=O)[C@H](Cc2c[nH]c3ccccc23)NC(=O)[C@@H](CC(C)C)NC(=O)[C@H](Cc2c[nH]c3ccccc23)NC1=O [SEQ ID NO:26, cyclo-(D-Lys-Lys-D-Leu-Trp-D-Leu-Trp)] (cyclo(K[dL]W[dL]W[dK])) |  | 10 µg/mL | 10 µg/mL | 10 | 80 | 40 µg/mL | 40 | > 10 µg/mL | 30 µg/mL | In Vitro MRSA MIC ([2]; ATCC 33591): 10 µg/mL; E. coli MIC (E. coli JM109(DE3)): 17 µg/mL; In Vitro RBC MIC (murine red blood cells [3]): 80 µg/mL; In Vitro VREF MIC ([4]; ATCC 51575): 40 µg/mL; proteolytic stability [7]: stable; PD50 S. aureus MRSA infection [8]: 15 mg/kg; PD50 protective dose where 50% of animals survive ([8]; FIG. 6, mice challenged with lethal doses of MRSA): 10 ± 2 mg/kg; PD50 MRSA ([8]; Table 12, male Balb-C mice, IP infection, IP peptide): 15; In Vivo MRSA PD50 ([8]; Table 13): 15 mg/kg; protection of mice from MRSA infection ([8]; single bolus IP dose of appropriate amount, 45-60 min after infection): completely protect; LD50(IP) (Toxicity studies in mice; Table 12, male Balb-C mice): 75; LD50(IV) (Toxicity studies in mice; Table 12, male Balb-C mice): 24; LD50 at 14 days (Toxicity studies in mice; male, Balb-C, mouse, in vivo, ip, Table 13): 75 mg/kg; signs at highest dose (Toxicity studies in mice; mice, IP 50 mg/kg): signs of acute toxicity that were not observable after one hour; tolerability (Toxicity studies in mice; mice, IP, maximum tested dose 50 mg/kg): tolerated up to the maximum tested IP dose
3 | CC(C)C[C@H]1NC(=O)[C@H](Cc2c[nH]c3ccccc23)NC(=O)[C@@H](CCCCN)NC(=O)[C@H](CCCNC(=N)N)NC(=O)[C@@H](CCCCN)NC(=O)[C@H](Cc2c[nH]c3ccccc23)NC(=O)[C@@H](CC(C)C)NC(=O)[C@H](Cc2c[nH]c3ccccc23)NC1=O [SEQ ID NO:19, D-Lys-Arg-D-Lys-Trp-D-Leu-Trp-D-Leu-Trp] (cyclo([dK]R[dK]W[dL]W[dL]W)) |  | 15 µg/mL | 10 µg/mL | 15 | 50 | 8 µg/mL | 8 | 3 µg/mL | 5 µg/mL | time to kill effectively all S. aureus (MRSA) [9]: within about five minutes
4 | CC(C)C[C@H]1NC(=O)[C@H](Cc2c[nH]cn2)NC(=O)[C@@H](CCCCN)NC(=O)[C@H](Cc2c[nH]c3ccccc23)NC(=O)[C@@H](CC(C)C)NC(=O)[C@H](Cc2c[nH]c3ccccc23)NC1=O [SEQ ID NO:27, cyclo-(D-Lys-His-D-Leu-Trp-D-Leu-Trp)] (cyclo(H[dL]W[dL]W[dK])) |  | 10 µg/mL | 10 µg/mL | 10 | 25 | 40 µg/mL | 40 | 5 µg/mL | 5 µg/mL | E. coli MIC (E. coli JM109(DE3)): 100 µg/mL; time to kill effectively all S. aureus (MRSA) [9]: ≤ 60 min; time to kill effectively all E. coli (E. coli JM109 (DE3)): ≤ 90 min
5 | cyclo[-(Gln-D-Leu)4] | does not display any ion transport activity |  |  |  |  |  |  |  |  | 
6 | cyclo[-(^MeN-D-Ala-Phe)4-] | does not promote proton transport activity |  |  |  |  |  |  |  |  | 
7 | MELLITIN [linear peptide that is hemolytic against mammalian red blood cells, reference compound] |  |  |  |  |  |  |  |  |  | MRSA (in vitro activity) ([2]; media b: cation adjusted Meuller Hinton broth (MHBII)): 6.3; RBC Hemolysis (HD50) (murine red blood cells [3]; Table 9): 10; VRE (in vitro activity) ([4]; media c: Brain Heart Infusion (BHI)): 6.3; hemolytic concentration against mammalian red blood cells in vitro (murine red blood cells [10]): about 10 μg/ml
